Values after ≈ are worked out from the molar mass of the structure shown. Read-outs that look alike come from different tables or passages of the source.
What was measured:
Type in all cases: in vivo
[1] = tested on: H. Zea; assay: Comparison against Heliothis spp: H. Zea
[2] = tested on: southern armyworm (Spodoptera eridania); assay: Southern Armyworm Leaf Spray Bait Test; conditions: 120 h, read-out: Percent Control after 5 days
Experimental: Suspensions of the test compounds were prepared by dissolving one gram of compound in 50 milliliters of acetone in which had been dissolved 0.1 gram (10 percent of the weight of compound) of an alkylphenoxy polyethoxyethanol surfactant, as an emulsifying or dispersing agent. The resulting solution was mixed into 150 milliliters of water to give roughly 200 milliliters of a suspension containing the compound in finely divided form. The thus-prepared stock suspension contained 0.5 percent by weight of compound.
Certain of the test compounds were also prepared by dissolving 375 mg of compound in 7.5 ml of dimethylformamide. Fifteen ml of acetone containing 37.5 mg (10 percent of the weight of test compound) of an alkylphenoxy polyethoxyethanol surfactant, as a wetting/emulsifying/dispersing agent was added to the dimethylformamide solution. Fifty-two and a half ml of water was mixed into the dimethylformamide-acetone mixture to give roughly 75 ml of a suspension containing the compound in solution or in finely divided form. The thus prepared stock suspension contained 0.5 percent by weight of compound. The test concentrations in parts per million by weight employed in the tests described hereinbelow were obtained by appropriate dilutions of the stock suspension with water. The test procedures were as follows:
Larvae of the southern armyworm (Spodoptera eridania, (Cram.), reared on Tendergreen bean plants at a temperature of 80°±5° F. and a relative humidity of 50±5 percent, constituted the test insects.
The test compounds were formulated by diluting the stock suspension with water to give a suspension containing 500 parts of test compound per million parts of final formulation. Potted Tendergreen bean plants of standard height and age were placed on a revolving turntable and sprayed with 100-110 milliliters of test compound formulation by use of a DeVilbiss spray gun set at 40 psig air pressure. This application, which lasted 25 seconds, was sufficient to wet plants to run-off. As a control, 100-110 milliliters of a water-acetone-emulsifier solution containing no test compound were also sprayed on infested plants. When dry, the paired leaves were separated and each one was placed in a 9 centimeter Petri dish lined with moistened filter paper. Five randomly selected larvae were introduced into each dish and the dishes were closed. The closed dishes were labeled and held at 80°-85° F. for five days. Although the larvae could easily consume the whole leaf within twenty-four hours, no more food was added. Larvae which were unable to move the length of the body, even upon stimulation by prodding, were considered dead. Percent mortality was recorded for various concentration levels.

[3] = tested on: H. Virecens; assay: Comparison against Heliothis spp: H. Virecens; conditions: read-out: LD50, H. Virecens
[4] = Helicoverpa zea; read-out: LD50, H. Zea

O=C(NC(=O)c1c(F)cccc1F)Nc1ccc(Cl)cc1 [1-(4-chlorophenyl)-3-(2,6-difluorobenzoyl)urea, reference compound]
LC50 ([1]; Helicoverpa zea, read-out: LD50, H. Zea): 500 µg/mL (≈ 1610 µM)
mortality at 5 ppm [2]: 40%
mortality at 10 ppm [2]: 100%
LC50 [3]: 31 µg/mL (≈ 99.8 µM)

O=C(NC(=O)c1c(F)cccc1F)Nc1cc(Cl)c(Oc2ccc(S(=O)(=O)c3ccc(Cl)cc3)cc2)c(Cl)c1 [Example 2, 1-(2,6-Difluorobenzoyl)-3-(3,5-dichloro-4-[4-(4-chlorophenylsulfonyl)phenoxy]phenyl)urea]
LC50 [1, 4]: 12.5 µg/mL (≈ 20.4 µM)
mortality at 3 ppm [2]: 100%
mortality at 6 ppm [2]: 90%
mortality at 12 ppm [2]: 100%
LC50 [3]: 8.5 µg/mL (≈ 13.9 µM)

O=C(NC(=O)c1c(F)cccc1F)Nc1ccc(Oc2ccc(S(=O)(=O)c3ccc(Cl)cc3)cc2)c(Cl)c1 [Example 3, 1-(2,6-difluorobenzoyl)-3-(3-chloro-4-[4-((4-chloro-phenylsulfonyl))-phenoxy]phenyl)urea]
LC50 [1, 4]: 31 µg/mL (≈ 53.7 µM)
mortality at 3 ppm [2]: 56%
mortality at 6 ppm [2]: 75%
mortality at 12 ppm [2]: 100%
LC50 [3]: 31 µg/mL (≈ 53.7 µM)

O=C(NC(=O)c1c(F)cccc1Cl)Nc1ccc(Oc2ccc(S(=O)(=O)c3ccc(Cl)cc3)cc2)cc1 [Example 9, 1-(2-chloro-6-fluorobenzoyl)-3-(4-[4-(4-chloro-phenylsulfonyl)phenoxy]-phenyl)urea]
mortality at 1.5 ppm [2]: 60%
mortality at 6 ppm [2]: 100%
mortality at 20 ppm [2]: 100%
